Earlier results as cited in paper PMC3057427 (ACS combinatorial science, 2011).

Structure (SMILES) | efficacy in anti-Parkinsonian animal models
O=C(Nc1cc(Cl)cc(Cl)c1)[C@H]1CCCC[C@H]1C(=O)O [Compound 2] | display efficacy
COc1cc(NC(=O)c2ccccn2)ccc1Cl [Compound 6] | display efficacy
